How the values were obtained:
Penicillium avellaneum = test: agar plate paper-disc inhibition zone screening; format: cell-based; settings: Hamigera avellanea, read-out: Inhibition Zone Diameter mm (Dose mg/ml) P. Avellaneum; for zone of inhibition at 3000 µg/mL: Dose 3.0 mg/ml
Method: The Penicillium avellaneum is grown for six days, at 28°C, on an agar medium. This is to allow sporulation of the culture. The organism is then harvested by scraping off the cells from the agar surface (mycelia and spores) and suspending them in saline solution containing 0.05% Tween 80.
The suspension is adjusted to a light transmittancy of 20%. One ml of this suspension is used to inoculate 100 ml of the molten-agar assay medium.
(§1) Stainless steel frames, 12.3 x 25.3 cm (ID) and glass plates, 15.3 x 31.7 cm are used to make the test trays. The frames are attached to the plates with tape at each end and the inner edges sealed with 2% agar. Twenty five ml of inoculated assay medium is spread evenly on each tray and allowed to solidify. The trays are covered, inverted, and refrigerated until used.
(§2) The compounds or samples to be tested are dissolved in suitable solvents, e.g., alcohols, dimethylsulfoxide, or N,N-dimethylformamide. The samples are generally dissolved so that the final concentration of the solvent is <10%.^* The compounds are tested at different concentrations: 3,000; 1,000; 500; 100; and 10 mcg/ml. Paper discs (12.7 mm diameter) are placed on the agar trays with forceps, then 0.08 ml of the dissolved compound is pipetted onto each disc using a 0.2 ml pipette.
(§3) The disked agar trays are incubated overnight (18-20 hours) at 37°C for the bacterial cultures and 28°C for the yeasts. The Penicillium avellaneium tray is incubated for at least […] since it is a slower- growing organism.
(§4) Active compounds show a zone of inhibition around the disc. The diameter of the zone is measured in mm. The zone diameter of active compounds ranges from a minimum of 13.5 mm to as high as 60 mm. The size of the zone diameter generally reflects the activity of the compound: the larger the zone the greater the activity.

[1] = system: lymphocytic leukemia P388; test: in vivo lymphocytic leukemia P388 test; design: species or system mice; settings: Mus musculus, P388, ip, 720 h, two single doses four days apart, read-out: T/C × 100 (Percent); for response vs control in vivo at 0.78 mg/kg: P388, Dose 0.78 mg/kg intraperitoneally; for response vs control in vivo at 1.56 mg/kg: P388, Dose 1.56 mg/kg intraperitoneally; for response vs control in vivo at 25 mg/kg: P388, Dose 25 mg/kg intraperitoneally; for response vs control in vivo at 3.12 mg/kg: P388, Dose 3.12 mg/kg intraperitoneally; for response vs control in vivo at 6.25 mg/kg: P388, Dose 6.25 mg/kg intraperitoneally; for response vs control in vivo at 12.5 mg/kg: P388, Dose 12.5 mg/kg intraperitoneally; for response vs control in vivo at 50 mg/kg: P388, Dose 50 mg/kg intraperitoneally
Method: The in vivo lymphocytic leukemia P388 test is carried out by the United States National Cancer Institute. The animals used are either male or female CD2F, mice. There are six to seven animals per test group. The tumor transplant is by intraperitoneal injection of dilute ascitic fluid containing cells of lymphocytic leukemia P388. The test compounds are administered intraperitoneally in two single doses with a four-day interval between doses at various dose levels following tumor inoculation. The animals are weighed and survivors are recorded on a regular basis for 30 days. A ratio of survival time for treated (T)/ control (C) animals is calculated. The criterion for efficacy is T/C x 100 > 125%. The positive control compound in this test is 1,4-dihydroxy-5,8-[bis[[2-[(2-hydroxyethyl)amino]-ethyl]amino]-9,10-anthracene- dione given at dosages ranging from 12.0 to 0.075 mg/kg. See Cancer Chemotherapy Reports, Part 3, 3, 1 (1972) for a comprehensive discussion of the protocol.

Escherichia coli = test: agar plate paper-disc inhibition zone screening; format: cell-based; settings: read-out: Inhibition Zone Diameter mm (Dose mg/ml) E. Coli; for zone of inhibition at 100 µg/mL: Dose 0.1 mg/ml; for zone of inhibition at 500 µg/mL: Dose 0.5 mg/ml; for zone of inhibition at 3000 µg/mL: Dose 3.0 mg/ml
Method: (§5) The bacterial and yeast isolates are maintained in agar slants or in liquid media, hereby designated as inoculum media. The cultures are transferred at regular intervals in such media. (See Table for the corresponding inoculum media of each culture.) The organisms are generally transferred on to agar slants or liquid inoculum media and incubated overnight (18-20 hours): 37°C for the bacterial isolates and 28°C for the fungal cultures.
(§6) The microbial cells from the overnight agar slants are then scraped off and suspended in saline solution (0.85% NaCI). The microbial concentrations are adjusted to a light transmittancy of 20-35%, Junior Coleman Spectrophotometer (555 M). For the organisms that are maintained in liquid media, an aliquot of the culture suspension is simply diluted with saline to 20-35% light transmittancy.
(§7) The above microbial suspension serve as inocula for the assay plates. Thus, 0.16-10 ml (see Table for exact amount) are used to inoculate 100 ml of the molten-agar assay medium.
as §1, §2, §3, §4

Streptococcus faecalis = test: agar plate paper-disc inhibition zone screening; format: cell-based; settings: Enterococcus faecalis, read-out: Inhibition Zone Diameter mm (Dose mg/ml) S. Faecalis; for zone of inhibition at 3000 µg/mL: Dose 3.0 mg/ml
Method: as §5, §6, §7, §1, §2, §3, §4

Aerobacter aerogenes = test: agar plate paper-disc inhibition zone screening; format: cell-based; settings: Klebsiella aerogenes, read-out: Inhibition Zone Diameter mm (Dose mg/ml) A. Aerogenes; for zone of inhibition at 500 µg/mL: Dose 0.5 mg/ml; for zone of inhibition at 3000 µg/mL: Dose 3.0 mg/ml
Method: as §5, §6, §7, §1, §2, §3, §4

Bacillus subtilis = test: agar plate paper-disc inhibition zone screening; format: cell-based; settings: read-out: Inhibition Zone Diameter mm (Dose mg/ml) B. Subtilis; for zone of inhibition at 1000 µg/mL: Dose 1.0 mg/ml; for zone of inhibition at 3000 µg/mL: Dose 3.0 mg/ml
Method: as §5, §6, §7, §1, §2, §3, §4

Structure (SMILES)	zone of inhibition at 3000 µg/mL (Penicillium avellaneum) [mm]	response vs control in vivo at 25 mg/kg [1] [%]	zone of inhibition at 500 µg/mL (Aerobacter aerogenes) [mm]	response vs control in vivo at 6.25 mg/kg [1] [%]	response vs control in vivo at 12.5 mg/kg [1] [%]	zone of inhibition at 500 µg/mL (Escherichia coli) [mm]	zone of inhibition at 3000 µg/mL (Streptococcus faecalis) [mm]	zone of inhibition at 1000 µg/mL (Bacillus subtilis) [mm]	zone of inhibition at 3000 µg/mL (Escherichia coli) [mm]	zone of inhibition at 3000 µg/mL (Aerobacter aerogenes) [mm]	zone of inhibition at 3000 µg/mL (Bacillus subtilis) [mm]	also measured
CCN(CC)CCn1nc2c3c(c(NCCNCCO)ccc31)C(=O)c1ccccc1-2 [Example 2]	0	197	18									response vs control in vivo at 0.78 mg/kg [1]: 135%; response vs control in vivo at 1.56 mg/kg [1]: 142%; zone of inhibition at 100 µg/mL (Escherichia coli): 14 mm; zone of inhibition at 500 µg/mL (Streptococcus faecalis; Dose 0.5 mg/ml): 15 mm; zone of inhibition at 100 µg/mL (Bacillus subtilis; Dose 0.1 mg/ml): 16 mm
CCN(CC)CCn1nc2c3c(c(NCCNC)ccc31)C(=O)c1c(O)ccc(O)c1-2 [Example 31, 2-[2-(Diethylamino)ethyl]-7,10-dihydroxy-5-[[2-(methylamino)ethyl]amino]anthra[1,9-cd]pyrazol-6(2H)-one]	0	219	16	163	191	16	14	17				response vs control in vivo at 3.12 mg/kg [1]: 154%; response vs control in vivo at 50 mg/kg [1]: 172%
CN(C)CCn1nc2c3c(c(NCCNCCO)ccc31)C(=O)c1c(O)ccc(O)c1-2 [Example 32]	0			214		15	0	15				response vs control in vivo at 0.78 mg/kg [1]: 161%; response vs control in vivo at 1.56 mg/kg [1]: 163%; zone of inhibition at 1000 µg/mL (Aerobacter aerogenes; Dose 1.0 mg/ml): 14 mm
CN(C)CCn1nc2c3c(c(NCCN)ccc31)C(=O)c1c(O)ccc(O)c1-2 [Example 33, 5-[(2-Aminoethyl)amino]-2-[2-(dimethylamino)ethyl]-7,10-dihydroxyanthra[1,9-cd]pyrazol-6(2H)-one]	0		14	182		14	16	14				response vs control in vivo at 3.12 mg/kg [1]: 182%
CN(C)CCn1nc2c3c(c(NCCCN)ccc31)C(=O)c1c(O)ccc(O)c1-2 [Example 34, 5-[(3-Aminopropyl)amino]-2-[2-(dimethylamino)ethyl]-7,10-dihydroxyanthra[1,9-cd]pyrazol-6(2H)-one]	0			196	205		0		15	14	0	
CCN(CC)CCNc1ccc2c3c(nn2CCO)-c2c(O)ccc(O)c2C(=O)c13 [Example 35, 5-[[2-(Diethylamino)ethyl]amino]-7,10-dihydroxy-2-(2-hydroxyethyl)anthra[1,9-cd]pyrazol-6(2H)-one]	0	128					14		0	0		response vs control in vivo at 37.5 mg/kg ([1]; P388, Dose 37.5 mg/kg intraperitoneally): 135%; response vs control in vivo at 75 mg/kg ([1]; P388, Dose 75 mg/kg intraperitoneally): 135%; response vs control in vivo at 150 mg/kg ([1]; P388, Dose 150 mg/kg intraperitoneally): 155%; response vs control in vivo at 200 mg/kg ([1]; P388, Dose 200 mg/kg intraperitoneally): 167%; response vs control in vivo at 300 mg/kg ([1]; P388, Dose 300 mg/kg intraperitoneally): 177%; response vs control in vivo at 400 mg/kg ([1]; P388, Dose 400 mg/kg intraperitoneally): 190%; zone of inhibition at 500 µg/mL (Bacillus subtilis; Dose 0.5 mg/ml): 14 mm
O=C1c2c(O)ccc(O)c2-c2nn(CCO)c3ccc(NCCNCCO)c1c23 [Example 36, 5-[[2-[(2-Hydroxyethyl)amino]ethyl]amino]-7,10-dihydroxy-2-(2-hydroxyethyl)anthra[1,9-cd]pyrazol-6(2H)- . one]	0			143	158		0		0	0	17	response vs control in vivo at 50 mg/kg [1]: 163%; response vs control in vivo at 100 mg/kg ([1]; P388, Dose 100 mg/kg intraperitoneally): 172%
NCCn1nc2c3c(c(Cl)ccc31)C(=O)c1ccccc1-2 [H; Cl*; (CH2)2NH2, 2-(2-Aminoethyl)-5-chloroanthra[1,9-cd]pyrazol-6(2H)-one]	16						0				14	zone of inhibition at 100 µg/mL (Escherichia coli): 16 mm; zone of inhibition at 100 µg/mL (Aerobacter aerogenes; Dose 0.1 mg/ml): 25 mm
CCN(CC)CC(O)Cn1nc2c3c(c(Cl)ccc31)C(=O)c1ccccc1-2 (centres unmarked) [H; Cl*; CH2CHOHCH2NEt2]						14		14		17		zone of inhibition at 1000 µg/mL (Penicillium avellaneum; Dose 1.0 mg/ml): 16 mm; zone of inhibition at 1000 µg/mL (Streptococcus faecalis; Dose 1.0 mg/ml): 15 mm

— patent EP0103381B1, “Substituted anthra(1,9-cd)pyrazol-6(2H)-ones” (WARNER-LAMBERT COMPANY, priority 1982, dated 1984)
